How the values were obtained:
[1] = molecular target: T1, xanthine oxidase (from buttermilk) (Bos taurus, UniProt P80457); test: Xanthine oxidase inhibitory effect; format: biochemical; settings: 100 μmol/L xanthine, 5 mU/mL enzyme; read-out: X.O. inhibition IC50
T1 construct: xanthine oxidase (from buttermilk; biozyme laboratories); purchased biozyme laboratories; host or cells: buttermilk (natural source)
Procedure: Assay for inhibition of xanthine oxidase was performed in 100 μmol/L substrate concentration (final concentration), 5 mU/mL enzyme concentration (final concentration) and compounds of the present invention as test compounds which were prepared with xanthine oxidase (from buttermilk; biozyme laboratories), xanthine (Sigma) and phosphate-buffered saline (PBS). In addition, all test compounds were frozen for preservation in condition of 20 mmol/L DMSO solution and used for experiments after thawing at need. Method is following: after diluted solution of test compound was added to 90 μL of 11.1 mU/mL enzyme solution, the mixture was incubated for 10 minutes after mixing. To start reaction, 100 μL of 200 μmol/L substrate solution was added to there, 10 minutes later, the reaction was stopped by addition of 500 μL of 0.5 mol/L sulfuric acid, and then absorbance at […] was measured. Final concentration of test compound was a single concentration, 10 μmol/L in single well for initial screening and 6 concentrations, 10, 1 μmol/L, 100, 10, 1 nmol/L, 100 pmol/L in duplicate for assay to calculate 50% inhibitory concentration (IC50) which were used for assay. Percent inhibition was calculated according to the formula described below. Percent inhibition (%)=(A−B)/(A−C)×100
In formula, A means absorbance in wells without test compound, B means absorbance in wells with test compound, C means absorbance in blank wells.
IC50 value was calculated from percent inhibition in each concentration by nonlinear regression method.

[2] = test system: potassium oxonate induced hyperuricemia; test: Blood hypouricemic effect, potassium oxonate induced hyperuricemia; format: in vivo; settings: Rattus norvegicus, po; 10 mg/kg orally; male SD rats; serum 2 hours after administration; read-out: Decrease (%) in UA concentration
Procedure: Effect of compound of the present invention as a test compound was studied on potassium oxonate induced hyperuricemia with male 7-week-old SD rats (Charles River Japan) and potassium oxonate (Aldrich) suspended in 1% gum arabic solution. Test compound was suspended in 0.5% CMC-Na solution, and then administered orally. Dosing was 10 mg/kg or 50 mg/kg. All volume of administered solution was 10 mL/kg. Potassium oxonate 250 mg/kg was administered to dorsal region of rats subcutaneously, 1 hour later each test compound was administered orally. For control group, only 0.5% CMC-Na solution as a vehicle was administrated. At 2 hours after administration of test compounds or vehicle, blood was collected under ether anesthesia, and serum was separated according to general method. Treated number was 5 for each group.
Measurement of concentration of uric acid was conducted with following prepared reagents. The deproteinization reagent was prepared in the following manner; 100 g of sodium tungstate was added to a 2 L flask, and exactly 75 mL of 85% phosphoric acid and 500 mL of water were added to the flask equipped with a reflux condenser, and heated for an hour. After cooling, the resulting faint yellow-green solution was diluted to 1 L exactly. Sodium carbonate-urea reagent was prepared in the following manner; 14 g of anhydrous sodium carbonate and 14 g of urea were dissolved in water and final volume of the solution was adjusted to 100 mL exactly. Phosphotungstic coloring reagent was prepared in 4-fold dilution of deproteinzation reagent described above with water. UA standard solution (10 mg/dL: Kyokuto pharmaceutical industrial CO., LTD) was used as an uric acid standard solution, and then serially diluted uric acid standard solution with purified water was also used for standard curve.
Three hundred μL of serum or standard was added to 2.1 mL of purified water, and then 150 μL of deproteination reagent was also added to the solution, followed by mixing. After incubating for 20 minutes, the mixture was centrifuged at 3000 rpm for 10 minutes. Sodium carbonate-urea reagent (0.5 mL) was added to 1.5 mL of supernatant, and the mixture was incubated for 20 minutes. Next, after addition of 250 μL of coloring reagent, further incubation was carried over 15 minutes. Absorbance at 660 nm was measured, and concentration of uric acid was calculated with standard curve. Percent decrease in concentration of uric acid was calculated by following formula. Percent decrease in concentration of uric acid (%)=(A−B)/A×100
In formula, A means average of concentration of blood uric acid in control group, B means average of concentration of blood uric acid in test compounds-treated group.

[3] = molecular target: T2, HEK293 cells forced to express URAT1 (Homo sapiens, UniProt Q96S37); test: URAT1 inhibitory effect, [8-14C] uric acid uptake; format: cell-based; settings: test compound 100 μmol/L, 20 μmol/L uric acid, 5 minutes uptake
T2 construct: host or cells: HEK293
T2 sequence (Q96S37 1-553): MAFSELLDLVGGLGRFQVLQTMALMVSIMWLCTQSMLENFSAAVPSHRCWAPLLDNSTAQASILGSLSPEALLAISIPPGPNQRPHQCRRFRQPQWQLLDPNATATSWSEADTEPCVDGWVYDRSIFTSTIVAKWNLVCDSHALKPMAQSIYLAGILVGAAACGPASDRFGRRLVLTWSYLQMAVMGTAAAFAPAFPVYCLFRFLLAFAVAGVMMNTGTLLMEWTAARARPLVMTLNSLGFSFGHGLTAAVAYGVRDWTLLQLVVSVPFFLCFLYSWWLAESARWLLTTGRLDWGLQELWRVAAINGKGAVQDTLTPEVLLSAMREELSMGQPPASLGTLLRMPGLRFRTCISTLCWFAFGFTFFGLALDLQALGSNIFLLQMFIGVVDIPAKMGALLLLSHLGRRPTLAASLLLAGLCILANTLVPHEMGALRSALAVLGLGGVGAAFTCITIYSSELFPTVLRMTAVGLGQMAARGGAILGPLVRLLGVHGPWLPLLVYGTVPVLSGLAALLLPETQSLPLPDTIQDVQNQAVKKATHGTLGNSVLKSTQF
Description: DMEM containing 10% FBS (supplemented with 0.05% geneticin, Nissui Pharmaceutical Co., Ltd.), HEK293 cells forced to express URAT1 (HCS (Human cell Systems), (Fuji Biomedix)), HBSS as washing buffer and HBSS substituted with Na-gluconate (NaCl in HBSS was substituted with Na-gluconate) were used for assay. [8-^14C] uric acid (moravek) was used as an uric acid reagent and added to assay buffer at 20 μmol/L as a final concentration. Compounds of the present invention were used as a test compound, 20 mmol/L stock solution of each test compound (DMSO solution) was diluted appropriately, and then the diluted test compound solution was added to assay buffer at 100 μmol/L as a final concentration including 0.5% final concentration of DMSO.
To prepare assay plates, at first, cells on subculture petri dish were peeled off using treatment of 0.05% trypsin-EDTA solution, and then seeded on Biocoat Poly-D-Lysine Cellware 24 well plate (BECTON DICKINSON) at a density of 2×10^5 cells/well and cultured for 2 days.
For the uptake study, at first, culture medium was removed by aspiration and cells were washed twice with HBSS (37° C.), then the buffer was replaced with 1 mL of assay buffer (37° C.). Cells were pre-incubated for 10 minutes. And then, the buffer was removed by aspiration and 0.5 mL of radioisotope ligand solution incubated at 37° C. was added, then cells were incubated for 5 minutes. After uptake, radioisotope solution was removed by aspiration, and immediately cells were washed three times with ice-cold HBSS, followed by resolving by addition of 0.5 mL of 0.5 mol/L NaOH. Cell lysate solution was transferred to a vial or 24 well plate for Betaplate, and mixed with 0.5 mL of liquid scintillator (Optiphase ‘Super Mix’; Perkin Elmer). Radioisotope activity was measured (using Betaplate 1450). As mean count in control solution not including test compound was 100%, percent inhibition was calculated by determining percent decrease in mean count in solution including test compound from mean count in control solution.

T1 sequence (P80457 whole entry): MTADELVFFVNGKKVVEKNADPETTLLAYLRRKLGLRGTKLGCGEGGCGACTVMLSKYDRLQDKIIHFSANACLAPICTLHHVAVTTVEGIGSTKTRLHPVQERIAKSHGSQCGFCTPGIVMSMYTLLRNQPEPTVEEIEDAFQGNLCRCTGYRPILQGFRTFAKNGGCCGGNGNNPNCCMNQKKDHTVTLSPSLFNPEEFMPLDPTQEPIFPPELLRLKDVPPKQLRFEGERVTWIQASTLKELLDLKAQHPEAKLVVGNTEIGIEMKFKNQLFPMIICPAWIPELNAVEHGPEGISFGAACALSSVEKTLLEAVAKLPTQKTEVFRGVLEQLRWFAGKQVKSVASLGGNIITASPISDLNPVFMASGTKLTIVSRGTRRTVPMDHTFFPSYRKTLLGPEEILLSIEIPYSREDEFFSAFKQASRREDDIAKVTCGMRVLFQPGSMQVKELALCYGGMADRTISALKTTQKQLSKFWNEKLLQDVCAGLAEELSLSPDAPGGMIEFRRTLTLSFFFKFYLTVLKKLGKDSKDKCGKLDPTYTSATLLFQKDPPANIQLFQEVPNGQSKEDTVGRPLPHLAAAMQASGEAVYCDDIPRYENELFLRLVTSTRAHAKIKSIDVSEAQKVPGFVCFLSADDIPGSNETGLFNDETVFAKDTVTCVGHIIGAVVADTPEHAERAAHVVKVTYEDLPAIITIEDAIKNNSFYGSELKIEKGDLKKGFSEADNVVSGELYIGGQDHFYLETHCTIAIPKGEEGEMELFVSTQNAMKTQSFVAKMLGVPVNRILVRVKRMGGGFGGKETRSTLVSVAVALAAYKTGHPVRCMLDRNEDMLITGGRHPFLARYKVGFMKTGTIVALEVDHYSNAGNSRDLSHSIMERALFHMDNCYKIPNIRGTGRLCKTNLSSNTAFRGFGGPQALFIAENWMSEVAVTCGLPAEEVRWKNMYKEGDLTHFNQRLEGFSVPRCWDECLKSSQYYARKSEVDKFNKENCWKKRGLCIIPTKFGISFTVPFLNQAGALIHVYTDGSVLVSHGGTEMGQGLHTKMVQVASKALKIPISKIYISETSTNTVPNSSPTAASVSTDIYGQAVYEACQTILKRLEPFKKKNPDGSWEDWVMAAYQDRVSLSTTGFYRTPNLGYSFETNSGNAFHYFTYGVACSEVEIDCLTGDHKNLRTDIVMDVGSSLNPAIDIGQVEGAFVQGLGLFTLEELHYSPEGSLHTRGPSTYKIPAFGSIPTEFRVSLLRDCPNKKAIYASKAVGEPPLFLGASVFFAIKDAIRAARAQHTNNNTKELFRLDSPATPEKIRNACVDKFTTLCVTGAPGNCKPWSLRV

## N#Cc1cn(-c2ccc(C(=O)O)cc2)cc1-c1ccccc1 [XO-B327]
[1]
  IC50: 4.9 nM
[2]
  inhibition in vivo at 10 mg/kg: 74.1%

## N#Cc1nn(-c2ccc(C(=O)O)cc2)nc1-c1ccccc1 [XO-B366]
[1]
  IC50: 77.7 nM

## Cc1ccccc1-c1cn(-c2ccc(C(=O)O)cc2)cc1C#N [XO-B395-1]
[1]
  IC50: 3.59 nM
[2]
  inhibition in vivo at 10 mg/kg: 79.1%

## N#Cc1cn(-c2ccc(C(=O)O)cc2)cc1-c1ccccc1Cl [XO-B397]
[1]
  IC50: 5.24 nM
[2]
  inhibition in vivo at 10 mg/kg: 76.7%

## Cc1ccc(-c2cn(-c3ccc(C(=O)O)cc3)cc2C#N)s1 [XO-B399-2]
[1]
  IC50: 5.56 nM
[2]
  inhibition in vivo at 10 mg/kg: 69.4%

## COc1ccccc1-c1cn(-c2ccc(C(=O)O)cc2)cc1C#N [XO-B403]
[1]
  IC50: 5.98 nM
[2]
  inhibition in vivo at 10 mg/kg: 62.1%

## Cn1cccc1-c1cn(-c2ccc(C(=O)O)cc2)cc1C#N [XO-B410]
[1]
  IC50: 5 nM
[2]
  inhibition in vivo at 10 mg/kg: 59.1%

## N#Cc1cn(-c2ccc(C(=O)O)cc2)cc1-c1ccccc1C(F)(F)F [XO-B412]
[1]
  IC50: 6.38 nM
[3]
  inhibition at 100 µM: 50.5%

## N#Cc1cn(-c2ccc(C(=O)O)cc2)cc1-c1ccc(Cl)s1 [XO-B414]
[1]
  IC50: 5.86 nM
[2]
  inhibition in vivo at 10 mg/kg: 67.1%

## N#Cc1cn(-c2ccc(C(=O)O)cc2)cc1-c1nccs1 [XO-B420]
[1]
  IC50: 6.33 nM

## N#Cc1cn(-c2ccc(C(=O)O)cc2)cc1-c1ccc(Cl)cc1 [XO-B421]
[1]
  IC50: 5.71 nM
[2]
  inhibition in vivo at 10 mg/kg: 57.8%

## COc1ccc(-c2cn(-c3ccc(C(=O)O)cc3)cc2C#N)cc1 [XO-B422]
[1]
  IC50: 3.56 nM
[2]
  inhibition in vivo at 10 mg/kg: 79%

## Cc1ccc(-c2cn(-c3ccc(C(=O)O)cc3)cc2C#N)cc1 [XO-B423]
[1]
  IC50: 4.26 nM
[2]
  inhibition in vivo at 10 mg/kg: 66.6%

## N#Cc1cn(-c2ccc(C(=O)O)cc2)cc1-c1ccc(C(F)(F)F)cc1 [XO-B428]
[1]
  IC50: 5.09 nM
[2]
  inhibition in vivo at 10 mg/kg: 68.3%

## N#Cc1cn(-c2ccc(C(=O)O)cc2)cc1-c1ccccc1F [XO-B436]
[1]
  IC50: 3.71 nM
[2]
  inhibition in vivo at 10 mg/kg: 77.3%

## N#Cc1cn(-c2ccc(C(=O)O)cc2)cc1-c1ccc(F)cc1 [XO-B438]
[1]
  IC50: 5.03 nM
[2]
  inhibition in vivo at 10 mg/kg: 69.3%

## Cc1c(-c2ccccc2)c(C#N)cn1-c1ccc(C(=O)O)cc1 [XO-B440]
[1]
  IC50: 15.2 nM
[2]
  inhibition in vivo at 10 mg/kg: 57.6%

## N#Cc1cn(-c2ccc(C(=O)O)cc2)c2ccccc12 [XO-CH146]
[1]
  IC50: 50.5 nM
[3]
  inhibition at 100 µM: 92.1%

## N#Cc1cn(-c2ccc(-c3nnn[nH]3)cc2)c2ccccc12 [XO-CH150]
[1]
  IC50: 31.6 nM
[3]
  inhibition at 100 µM: 79.3%

## N#Cc1cn(-c2ccc(C(=O)O)cc2)c2ccc(Cl)cc12 [XO-CH160]
[1]
  IC50: 26.7 nM
[3]
  inhibition at 100 µM: 93.8%

## N#Cc1cn(-c2ccc(C(=O)O)cc2)c2ccc(F)cc12 [XO-CH168]
[1]
  IC50: 57.1 nM
[3]
  inhibition at 100 µM: 92.5%

## Cc1c(C#N)c2ccccc2n1-c1ccc(C(=O)O)cc1 [XO-CH172]
[3]
  inhibition at 100 µM: 88.3%

## Cc1cccc2c(C#N)cn(-c3ccc(C(=O)O)cc3)c12 [XO-CH205]
[3]
  inhibition at 100 µM: 95.7%

## N#Cc1cn(-c2ccc(C(=O)O)cc2)c2cc(C(F)(F)F)ccc12 [XO-CH206]
[3]
  inhibition at 100 µM: 98.1%

## N#Cc1cn(-c2ccc(C(=O)O)cc2)c2ncccc12 [XO-KT10]
[3]
  inhibition at 100 µM: 92.3%

## N#Cc1cn(-c2ccc(C(=O)O)cc2)c2nc(Cl)ccc12 [XO-KT18]
[3]
  inhibition at 100 µM: 95.2%

## N#Cc1cnc2c(c1)c(C#N)cn2-c1ccc(C(=O)O)cc1 [XO-KT20]
[3]
  inhibition at 100 µM: 64.6%

## N#Cc1nn(-c2ccc(C(=O)O)cc2)c2ccccc12 [XO-KT30]
[3]
  inhibition at 100 µM: 79.9%

## N#Cc1cn(-c2ccc(C(=O)O)cc2)nc1-c1ccccc1 [XO-TT469]
[1]
  IC50: 8.18 nM
[2]
  inhibition in vivo at 10 mg/kg: 75%

## N#Cc1cn(-c2ccc(-c3nnn[nH]3)cc2)nc1-c1ccccc1 [XO-TT473]
[1]
  IC50: 16 nM

## N#Cc1cn(-c2ccc(C(=O)O)cc2)nc1-c1ccccc1Cl [XO-TT524]
[1]
  IC50: 5.18 nM
[2]
  inhibition in vivo at 10 mg/kg: 68.7%

## Cc1ccc(-c2nn(-c3ccc(C(=O)O)cc3)cc2C#N)cc1 [XO-TT537]
[1]
  IC50: 4.86 nM

## COc1ccc(-c2nn(-c3ccc(C(=O)O)cc3)cc2C#N)cc1 [XO-TT544]
[1]
  IC50: 3.77 nM
[2]
  inhibition in vivo at 10 mg/kg: 71.1%

## Cc1ccsc1-c1nn(-c2ccc(C(=O)O)cc2)cc1C#N [XO-TT545]
[1]
  IC50: 5.21 nM
[2]
  inhibition in vivo at 10 mg/kg: 75.8%

## COc1cccc(-c2nn(-c3ccc(C(=O)O)cc3)cc2C#N)c1 [XO-TT552]
[1]
  IC50: 5.59 nM

## Cc1ccc(-c2nn(-c3ccc(C(=O)O)cc3)cc2C#N)s1 [XO-TT554]
[1]
  IC50: 5.44 nM
[2]
  inhibition in vivo at 10 mg/kg: 60.5%

## N#Cc1cn(-c2ccc(C(=O)O)cc2)nc1-c1ccccc1F [XO-TT559]
[1]
  IC50: 2.91 nM
[2]
  inhibition in vivo at 10 mg/kg: 75.9%

## N#Cc1cn(-c2ccc(C(=O)O)cc2)nc1-c1ccccc1C(F)(F)F [XO-TT561]
[1]
  IC50: 8.47 nM

## N#Cc1cn(-c2ccc(C(=O)O)cc2)nc1-c1ccc(F)cc1 [XO-TT572]
[1]
  IC50: 4.12 nM
[2]
  inhibition in vivo at 10 mg/kg: 56.1%

## Cc1ccccc1-c1nn(-c2ccc(C(=O)O)cc2)cc1C#N [XO-TT573]
[1]
  IC50: 4 nM
[2]
  inhibition in vivo at 10 mg/kg: 66.3%

## COc1ccccc1-c1nn(-c2ccc(C(=O)O)cc2)cc1C#N [XO-TT574]
[1]
  IC50: 5.52 nM
